Measurements: PubChem BioAssay AID248 (DTP/NCI, 2004)
Values joined by “and” are separate entries in the source; they are usually repeats but may differ in a detail not shown here. Equal values may be shown once. Inconclusive results and toxic doses are left out. No stated cut-off is given here; in the data, active means T/C of 150% or more; inactive means T/C below 125%.

System: L1210 leukemia ip in BDF1 mice, survival T/C
Assay: NCI In Vivo Anticancer Drug Screen. Data for tumor model L1210 Leukemia (intraperitoneal) in B6D2F1 (BDF1) mice
Conditions: endpoint: mean survival time, higher = longer survival
Procedure, shortened: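 In this screen, tumor-bearing mice given compound are compared to those given vehicle, and their survival values are reported as a treated-to-control quotient.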

[1] = dose: 100.0 mg/kg/injection, schedule: Q01DX001 (ip), vehicle: saline
[2] = dose: 100.0 mg/kg/injection, schedule: Q01DX009 (ip), vehicle: saline
[3] = dose: 200.0 mg/kg/injection, schedule: Q01DX009 (ip), vehicle: saline
[4] = dose: 400.0 mg/kg/injection, schedule: Q01DX009 (ip), vehicle: saline
[5] = dose: 50.0 mg/kg/injection, schedule: Q01DX009 (ip), vehicle: Klucel (hydroxypropylcellulose) (HPC)
[6] = dose: 100.0 mg/kg/injection, schedule: Q04DX003 (ip), vehicle: Klucel (hydroxypropylcellulose) (HPC)
[7] = dose: 100.0 mg/kg/injection, schedule: Q04DX003 (ip), vehicle: gum acacia
[8] = dose: 200.0 mg/kg/injection, schedule: Q04DX003 (ip), vehicle: gum acacia
[9] = dose: 400.0 mg/kg/injection, schedule: Q04DX003 (ip), vehicle: gum acacia
[10] = dose: 100.0 mg/kg/injection, schedule: Q04DX003 (ip), vehicle: saline
[11] = dose: 200.0 mg/kg/injection, schedule: Q04DX003 (ip), vehicle: saline
[12] = dose: 400.0 mg/kg/injection, schedule: Q04DX003 (ip), vehicle: saline
[13] = dose: 100.0 mg/kg/injection, schedule: Q04DX003 (ip), vehicle: saline with Tween-80
[14] = dose: 200.0 mg/kg/injection, schedule: Q04DX003 (ip), vehicle: saline with Tween-80
[15] = dose: 400.0 mg/kg/injection, schedule: Q04DX003 (ip), vehicle: saline with Tween-80

Measured: T/C

CC[CH2][Sn]([CH2]CC)([CH2]CC)[CH2]Cc1ccncc1
inactive: dose: 6.25 mg/kg/injection, schedule: Q04DX002 (ip), vehicle: saline with Tween-80 101 % of control | dose: 12.5 mg/kg/injection, schedule: Q04DX002 (ip), vehicle: saline with Tween-80 93 % of control | dose: 25.0 mg/kg/injection, schedule: Q04DX002 (ip), vehicle: saline with Tween-80 89 % of control

CC1(C)C(C)(C)C12C=CC=C2
inactive: dose: 25.0 mg/kg/injection, schedule: Q01DX001 (ip), vehicle: saline 104 % of control | dose: 50.0 mg/kg/injection, schedule: Q01DX001 (ip), vehicle: saline 102 % of control | [1] 101 % of control

O=C(O)c1cc2ccccc2c(Br)c1O.OC1CCCC2CCC[N-]C12.[Cu+]
inactive: dose: 4.0 mg/kg/injection, schedule: Q01DX015 (sc), vehicle: steriod suspending solution 97 % of control | dose: 16.0 mg/kg/injection, schedule: Q01DX015 (sc), vehicle: steriod suspending solution 103 % of control | dose: 32.0 mg/kg/injection, schedule: Q01DX015 (sc), vehicle: steriod suspending solution 100 % of control | dose: 50.0 mg/kg/injection, schedule: Q01DX001 (sc), vehicle: steriod suspending solution 98 % of control | dose: 100.0 mg/kg/injection, schedule: Q01DX001 (sc), vehicle: steriod suspending solution 111 % of control

NCCc1cc(O)c(O)cc1O
inactive: dose: 25.0 mg/kg/injection, schedule: Q01DX009 (ip), vehicle: saline 102 % of control and 107 % of control | dose: 50.0 mg/kg/injection, schedule: Q01DX009 (ip), vehicle: saline 93 % of control and 103 % of control | [2] 93 % of control and 91 % of control | [3] 88 % of control | [4] 86 % of control

CC1(CCC(=O)/C=C/c2ccccc2)CCC/C(=C/c2ccccc2)C1=O (stereo not drawn)
inactive: dose: 12.5 mg/kg/injection, schedule: Q01DX009 (ip), vehicle: Klucel (hydroxypropylcellulose) (HPC) 97 % of control | dose: 25.0 mg/kg/injection, schedule: Q01DX009 (ip), vehicle: Klucel (hydroxypropylcellulose) (HPC) 101 % of control | [5] 103 % of control | [6] 91 % of control | dose: 200.0 mg/kg/injection, schedule: Q04DX003 (ip), vehicle: Klucel (hydroxypropylcellulose) (HPC) 91 % of control | dose: 400.0 mg/kg/injection, schedule: Q04DX003 (ip), vehicle: Klucel (hydroxypropylcellulose) (HPC) 91 % of control

CCCCCCCCCCCCCCOc1ccc(Sc2ccc([N+](=O)[O-])cc2)cc1
inactive: dose: 100.0 mg/kg/injection, schedule: Q01DX001 (ip), vehicle: Klucel (hydroxypropylcellulose) (HPC) 106 % of control | dose: 200.0 mg/kg/injection, schedule: Q01DX001 (ip), vehicle: Klucel (hydroxypropylcellulose) (HPC) 90 % of control | dose: 400.0 mg/kg/injection, schedule: Q01DX001 (ip), vehicle: Klucel (hydroxypropylcellulose) (HPC) 89 % of control

Cc1ccc(Oc2ccc(-c3cc(=O)c4cc(S(=O)(=O)F)ccc4[nH]3)cc2)cc1
inactive: [7] 96 % of control | [8] 88 % of control | [9] 86 % of control

COC1=C2C=[N+](C)C3C(=C2C=CC1OC)Cc1cc2c(cc13)OCO2 (stereo not drawn)
inactive: dose: 50.0 mg/kg/injection, schedule: Q01DX001 (ip), vehicle: carboxymethylcellulose (CMC) 104 % of control | dose: 100.0 mg/kg/injection, schedule: Q01DX001 (ip), vehicle: carboxymethylcellulose (CMC) 107 % of control | dose: 200.0 mg/kg/injection, schedule: Q01DX001 (ip), vehicle: carboxymethylcellulose (CMC) 102 % of control

O=C(Nc1cccc(C2=NCCN2)c1)c1ccc(C(=O)Nc2cccc(C3=NCCN3)c2)c(Cl)c1
inactive: dose: 0.75 mg/kg/injection, schedule: Q01DX Z (ip), vehicle: carboxymethylcellulose (CMC) 101 % of control | dose: 1.0 mg/kg/injection, schedule: Q01DX009 (ip), vehicle: saline 97 % of control | dose: 1.5 mg/kg/injection, schedule: Q01DX Z (ip), vehicle: carboxymethylcellulose (CMC) 95 % of control and 104 % of control | dose: 2.0 mg/kg/injection, schedule: Q01DX009 (ip), vehicle: saline 97 % of control | dose: 3.0 mg/kg/injection, schedule: Q01DX Z (ip), vehicle: carboxymethylcellulose (CMC) 96 % of control and 98 % of control | dose: 4.0 mg/kg/injection, schedule: Q01DX009 (ip), vehicle: saline 95 % of control | dose: 6.0 mg/kg/injection, schedule: Q01DX Z (ip), vehicle: carboxymethylcellulose (CMC) 93 % of control and 96 % of control | dose: 8.0 mg/kg/injection, schedule: Q01DX009 (ip), vehicle: saline 94 % of control | dose: 9.0 mg/kg/injection, schedule: Q01DX Z (ip), vehicle: methylcellulose (MC) 93 % of control | dose: 12.0 mg/kg/injection, schedule: Q01DX Z (ip), vehicle: carboxymethylcellulose (CMC) 95 % of control | dose: 12.0 mg/kg/injection, schedule: Q01DX Z (ip), vehicle: methylcellulose (MC) 95 % of control | dose: 18.0 mg/kg/injection, schedule: Q01DX Z (ip), vehicle: methylcellulose (MC) 109 % of control | dose: 27.0 mg/kg/injection, schedule: Q01DX Z (ip), vehicle: methylcellulose (MC) 106 % of control

COc1cccc(CC(N)=O)c1OC
inactive: [2] 97 % of control | [10] 95 % of control | [3] 90 % of control | [11] 92 % of control | [12] 97 % of control

NC(=S)N/N=C\c1c(Cl)[nH]c2ccc(/C=N/NC(N)=S)cc12
inactive: dose: 50.0 mg/kg/injection, schedule: Q04DX002 (ip), vehicle: Klucel (hydroxypropylcellulose) (HPC) 97 % of control | dose: 100.0 mg/kg/injection, schedule: Q04DX002 (ip), vehicle: Klucel (hydroxypropylcellulose) (HPC) 90 % of control | dose: 200.0 mg/kg/injection, schedule: Q04DX002 (ip), vehicle: Klucel (hydroxypropylcellulose) (HPC) 94 % of control

N#CC1(C(N)=O)OC12CCS(=O)(=O)c1ccccc12 (stereo not drawn)
inactive: [1] 87 % of control | dose: 200.0 mg/kg/injection, schedule: Q01DX001 (ip), vehicle: saline 94 % of control

CC(=O)Nc1cccc(/C=C/c2nc(N)nc(N)c2-c2ccc(Cl)cc2)c1
inactive: dose: 100.0 mg/kg/injection, schedule: Q01DX001 (ip), vehicle: saline with Tween-80 98 % of control | dose: 200.0 mg/kg/injection, schedule: Q01DX001 (ip), vehicle: saline with Tween-80 87 % of control | dose: 400.0 mg/kg/injection, schedule: Q01DX001 (ip), vehicle: saline with Tween-80 90 % of control

O=C(O)C1CCC(C(=O)c2ccc([N+](=O)[O-])cc2)CC1 (stereo not drawn)
inactive: [7] 97 % of control | [8] 93 % of control | [9] 88 % of control

CCC(N)(C(=O)O)C1CCCCC1 (stereo not drawn)
inactive: [10] 96 % of control | [11] 94 % of control | [12] 93 % of control

CC12CCC(CC1)C2C(=O)O (stereo not drawn)
inactive: dose: 75.0 mg/kg/injection, schedule: Q01DX009 (ip), vehicle: saline with Tween-80 106 % of control | [13] 102 % of control | dose: 150.0 mg/kg/injection, schedule: Q01DX009 (ip), vehicle: saline with Tween-80 93 % of control | [14] 98 % of control | dose: 300.0 mg/kg/injection, schedule: Q01DX009 (ip), vehicle: saline with Tween-80 98 % of control | [15] 102 % of control

OC(C=C(C(F)(F)F)C(F)(F)F)c1cccc(Cl)c1 (stereo not drawn)
inactive: dose: 100.0 mg/kg/injection, schedule: Q04DX003 (sc), vehicle: olive oil, sesame oil, peanut oil 97 % of control | dose: 200.0 mg/kg/injection, schedule: Q04DX003 (sc), vehicle: olive oil, sesame oil, peanut oil 95 % of control | dose: 400.0 mg/kg/injection, schedule: Q04DX003 (sc), vehicle: olive oil, sesame oil, peanut oil 91 % of control

COc1cc(CC(=O)O)c(Br)cc1C
inactive: [2] 97 % of control | [13] 101 % of control | [3] 109 % of control | [14] 104 % of control | [4] 92 % of control | [15] 108 % of control

c1ccc(C(C2=NCCN2)c2ccccc2)cc1
inactive: dose: 25.0 mg/kg/injection, schedule: Q04DX003 (ip), vehicle: Klucel (hydroxypropylcellulose) (HPC) 101 % of control | [5] 102 % of control | dose: 50.0 mg/kg/injection, schedule: Q04DX003 (ip), vehicle: Klucel (hydroxypropylcellulose) (HPC) 106 % of control | dose: 100.0 mg/kg/injection, schedule: Q01DX009 (ip), vehicle: Klucel (hydroxypropylcellulose) (HPC) 91 % of control | [6] 101 % of control and 103 % of control
